Data as given in patent publication US20240124504A1, “AROMATIC HETEROCYCLIC COMPOUND, AND PHARMACEUTICAL COMPOSITION AND APPLICATION THEREOF” (GT APEIRON THERAPEUTICS LIMITED, priority 2020, published 2024).

Columns and labels:
CDK2/cyclinE1 complex = CDK2/cyclinE1 complex (Homo sapiens, UniProt P24941); experiment: In-vitro enzymatic inhibitory activity testing, CDK2 inhibition assay (Caliper EZ Reader II); type: biochemical; settings: CDK2/cyclinE1 0.5 nM, 180 min at 27° C.
Method in brief: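 CDK2/cyclinE1 (0.5 nM) phosphorylated 5-FAM-CDK7tide (2 μM) in MES buffer pH 6.5 with MgCl2, Tween 20 and BSA. Substrate and product were separated electrophoretically on a Caliper EZ Reader II. IC50 values came from nonlinear dose-response fits.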

[1] = target: T1, CDK12 (aa686-1082)/cyclinK complex (Homo sapiens, UniProt Q9NYV4); experiment: In-vitro enzymatic inhibitory activity testing, CDK12 inhibition assay (Caliper EZ Reader II); type: biochemical; settings: CDK12/cyclinK 50 nM, 180 min at 27° C.; read-out: CDK12 IC50
T1 construct: A CDK12 (aa686-1082)/cyclinK complex (50 nM)
Method in brief: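 Caliper EZ Reader II mobility-shift separation of 5-FAM-CDK9tide substrate (2 μM) from phosphoproduct, using 50 nM CDK12 (aa686-1082)/cyclinK in 80 mM MES pH 6.5, 10 mM MgCl2, 0.01% Tween 20, 50 ug/mL BSA. Compound pre-incubated 10 min with enzyme, then substrate/ATP added for 180 min at 27° C; EDTA stop. IC50 by nonlinear dose-response regression.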

ovarian cancer A2780 = experiment: Cell biological activity detection (CyQuant, 72 hours), A2780; type: cell-based, human; settings: A2780 cells, incubation for 72 hours
Description: (§1) A2780 and HCC70 cells were subjected to trypsin digestion treatment, and cell suspensions were respectively transferred to 15 mL centrifuge tubes and centrifuged for 5 min at […]) rpm; supernatant was discarded, and resuspension was carried out in a fresh medium (RPMI 1640+10% FBS), after counting, cells were seeded into a 384-well plate at 2000/well (50 μL of 1640+10% FBS medium was added to the 2nd column and the 23rd column of the 384-well plate, and 50 μL of DPBS was added to the surrounding wells). Incubation was carried out overnight in an incubator (37° C., 5% CO2).
(§2) The compound was added to the well plates the next day. The compound had the highest concentration of 10 μM and was diluted at 1:4, and there were a total of 9 concentrations; and a positive compound Paclitaxel had the highest concentration of 1 μM and was diluted at 1:3, and there were a total of 9 concentrations. The DMSO content in each well was unified to 0.2%. The cell plates were centrifuged for 30 seconds at 800 rpm and placed in an incubator (37° C., 5% CO2) for incubation for 72 hours. On the fourth day, a Cyquant reagent (3×) was formulated according to kit instructions, and formulation was carried out for each 384-well plate according to the following proportions: DPBS 11.568 mL, CyQuant®? Direct nucleic acid stain 72 μL, and CyQuant® Direct background suppressor 360 μL. After uniform mixing, the reagent was placed at room temperature for further use. The cell plates were taken out and equilibrated for 30 min at room temperature, and 25 μL of the Cyquant reagent (3×) per well was dispensed into the cells of the 384-well plates by Multi-drop, and incubation was carried out for more than 60 minutes at 37° C. Acumen plate reading (Acumen setting: an excitation wavelength of 488 nm). IC50 results were analyzed by XLFIT5 from IDBS Company.

CDK9/cyclinT1 complex = CDK9/cyclinT1 complex (Homo sapiens, UniProt P50750); experiment: In-vitro enzymatic inhibitory activity testing, CDK9 inhibition assay (Caliper EZ Reader II); type: biochemical; settings: CDK9/cyclinT1 8 nM, 180 min at 27° C.
Method in brief: (§3)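 Enzyme preincubated 10 min with compound, then peptide substrate plus ATP added in 80 mM MES pH 6.5, 10 mM MgCl2 buffer; 180 min at 27 °C, stopped with EDTA.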

[2] = test system: human breast cancer cells HCC70; experiment: Cell biological activity detection (CyQuant, 72 hours), HCC70; type: cell-based; settings: incubation for 72 hours
Description: as §1, §2

[3] = target: CDK7/cyclinH/MAT1 complex (Homo sapiens, UniProt P50613); experiment: In-vitro enzymatic inhibitory activity testing, CDK7 inhibition assay (Caliper EZ Reader II); type: biochemical; settings: CDK7/cyclinH/MAT1 6 nM, 180 min at 27° C.
Method in brief: as §3

Sequence of CDK7/cyclinH/MAT1 complex (P50613 whole entry, species assumed): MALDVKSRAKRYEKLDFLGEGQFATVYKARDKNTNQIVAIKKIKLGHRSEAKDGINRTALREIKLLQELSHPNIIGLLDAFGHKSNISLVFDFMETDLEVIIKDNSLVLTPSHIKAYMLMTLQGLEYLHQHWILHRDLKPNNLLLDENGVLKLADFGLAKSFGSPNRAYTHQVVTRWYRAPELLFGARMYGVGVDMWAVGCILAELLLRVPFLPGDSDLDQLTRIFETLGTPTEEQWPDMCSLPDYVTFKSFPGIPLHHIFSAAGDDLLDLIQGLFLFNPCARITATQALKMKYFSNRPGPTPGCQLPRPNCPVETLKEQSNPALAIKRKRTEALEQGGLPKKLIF
Sequence of CDK7/cyclinH/MAT1 complex (P51946 whole entry partner, species assumed): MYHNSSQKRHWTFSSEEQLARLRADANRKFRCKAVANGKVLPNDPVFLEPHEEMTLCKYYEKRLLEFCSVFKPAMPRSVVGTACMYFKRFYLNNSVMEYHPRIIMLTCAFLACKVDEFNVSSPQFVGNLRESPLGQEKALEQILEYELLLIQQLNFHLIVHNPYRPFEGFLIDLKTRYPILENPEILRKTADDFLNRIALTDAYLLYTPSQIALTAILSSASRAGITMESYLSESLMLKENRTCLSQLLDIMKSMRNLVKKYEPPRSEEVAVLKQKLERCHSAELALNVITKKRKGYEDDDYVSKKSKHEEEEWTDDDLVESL
Sequence of CDK7/cyclinH/MAT1 complex (P51948 whole entry partner, species assumed): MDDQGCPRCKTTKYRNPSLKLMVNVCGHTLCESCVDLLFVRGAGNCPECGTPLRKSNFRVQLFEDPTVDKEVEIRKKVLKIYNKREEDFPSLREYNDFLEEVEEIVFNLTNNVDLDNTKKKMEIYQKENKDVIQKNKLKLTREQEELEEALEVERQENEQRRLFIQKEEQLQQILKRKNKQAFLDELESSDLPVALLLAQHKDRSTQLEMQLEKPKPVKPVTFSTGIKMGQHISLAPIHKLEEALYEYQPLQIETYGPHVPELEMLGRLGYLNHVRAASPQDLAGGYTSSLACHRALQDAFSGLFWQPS
Sequence of CDK9/cyclinT1 complex (P50750 whole entry, species assumed): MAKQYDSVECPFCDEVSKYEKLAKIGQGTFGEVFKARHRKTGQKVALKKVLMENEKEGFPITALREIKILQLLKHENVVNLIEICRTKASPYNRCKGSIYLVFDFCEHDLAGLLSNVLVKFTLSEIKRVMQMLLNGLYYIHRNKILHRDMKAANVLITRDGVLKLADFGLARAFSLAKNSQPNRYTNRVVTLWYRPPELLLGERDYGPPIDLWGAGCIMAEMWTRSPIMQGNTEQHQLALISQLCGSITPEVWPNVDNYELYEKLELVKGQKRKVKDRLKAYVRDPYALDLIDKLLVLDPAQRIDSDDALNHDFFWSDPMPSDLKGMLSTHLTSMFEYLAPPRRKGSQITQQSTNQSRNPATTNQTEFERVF
Sequence of CDK9/cyclinT1 complex (O60563 whole entry partner, species assumed): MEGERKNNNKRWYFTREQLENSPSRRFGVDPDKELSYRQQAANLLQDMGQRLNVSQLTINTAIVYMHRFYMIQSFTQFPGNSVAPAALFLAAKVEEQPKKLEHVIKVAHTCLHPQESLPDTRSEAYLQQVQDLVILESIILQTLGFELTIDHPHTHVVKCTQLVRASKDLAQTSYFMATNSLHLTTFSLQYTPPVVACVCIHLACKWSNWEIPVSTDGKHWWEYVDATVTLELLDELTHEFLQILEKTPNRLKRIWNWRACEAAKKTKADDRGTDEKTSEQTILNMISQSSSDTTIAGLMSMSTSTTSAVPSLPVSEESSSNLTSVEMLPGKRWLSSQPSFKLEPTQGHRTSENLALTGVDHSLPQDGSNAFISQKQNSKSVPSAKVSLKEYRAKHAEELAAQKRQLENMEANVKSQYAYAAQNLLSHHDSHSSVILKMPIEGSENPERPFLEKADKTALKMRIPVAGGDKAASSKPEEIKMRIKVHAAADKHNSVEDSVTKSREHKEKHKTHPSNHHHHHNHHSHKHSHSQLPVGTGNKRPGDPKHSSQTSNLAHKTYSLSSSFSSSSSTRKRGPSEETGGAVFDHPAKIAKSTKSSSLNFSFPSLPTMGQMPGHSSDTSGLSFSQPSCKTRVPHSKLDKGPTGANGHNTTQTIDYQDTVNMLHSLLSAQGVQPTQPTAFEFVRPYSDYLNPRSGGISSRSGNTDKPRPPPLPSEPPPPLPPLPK
T1 sequence (Q9NYV4 686-1082, species assumed): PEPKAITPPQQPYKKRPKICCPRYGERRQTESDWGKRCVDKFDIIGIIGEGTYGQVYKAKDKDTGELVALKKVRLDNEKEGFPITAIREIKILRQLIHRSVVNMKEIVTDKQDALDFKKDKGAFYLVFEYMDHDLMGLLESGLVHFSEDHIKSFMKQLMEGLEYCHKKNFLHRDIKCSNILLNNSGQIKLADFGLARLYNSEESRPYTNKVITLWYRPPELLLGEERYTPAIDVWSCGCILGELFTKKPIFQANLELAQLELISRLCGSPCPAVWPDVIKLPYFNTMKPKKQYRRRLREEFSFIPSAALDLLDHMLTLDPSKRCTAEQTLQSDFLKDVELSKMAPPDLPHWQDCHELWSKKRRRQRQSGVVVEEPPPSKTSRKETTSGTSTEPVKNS
T1 sequence (O75909 whole entry partner, species assumed, the tested form may be a part): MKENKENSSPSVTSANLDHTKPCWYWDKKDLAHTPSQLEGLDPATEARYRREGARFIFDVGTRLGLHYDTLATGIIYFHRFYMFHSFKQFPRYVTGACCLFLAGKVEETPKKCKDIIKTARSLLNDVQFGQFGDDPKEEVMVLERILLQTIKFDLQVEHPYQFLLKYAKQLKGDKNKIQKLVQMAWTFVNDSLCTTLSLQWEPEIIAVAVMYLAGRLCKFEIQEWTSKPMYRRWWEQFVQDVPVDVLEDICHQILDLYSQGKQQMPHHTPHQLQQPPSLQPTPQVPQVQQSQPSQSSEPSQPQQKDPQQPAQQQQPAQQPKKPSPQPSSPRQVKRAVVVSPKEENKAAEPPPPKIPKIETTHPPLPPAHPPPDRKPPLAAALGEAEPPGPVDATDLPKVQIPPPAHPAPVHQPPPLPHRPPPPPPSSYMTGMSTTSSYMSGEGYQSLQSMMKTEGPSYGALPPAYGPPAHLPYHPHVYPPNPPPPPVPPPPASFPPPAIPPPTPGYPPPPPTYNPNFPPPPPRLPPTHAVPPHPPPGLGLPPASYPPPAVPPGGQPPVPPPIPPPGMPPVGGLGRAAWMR

SMILES	IC50 (CDK2/cyclinE1 complex)	IC50 [1]	IC50 (ovarian cancer A2780; Homo sapiens, A2780, 72 h)	IC50 (CDK9/cyclinT1 complex)	IC50 ([2]; Homo sapiens, HCC70, 72 h)	IC50 [3]	IC50 (ovarian cancer A2780)	IC50 [2]
CP(C)(=O)c1cccc2c(-c3nc(NCC4(O)CCC4)ncc3C(F)(F)F)c[nH]c12 [Compound 90]	5 to 50 µM	> 50 µM	0.02 to 0.2 µM	5 to 50 µM	0.02 to 0.2 µM	0.02 to 0.2 µM	–	–
CP(C)(=O)c1cccc2c(-c3nc(N[C@H]4CCCC[C@@H]4O)ncc3C(F)(F)F)c[nH]c12 [Compound 165, (3-(2-(((1S,2S)-2-hydroxycyclohexyl)amino)-5-(trifluoromethyl)pyrimidin-4-yl)-1H-indole-7-yl)dimethylphosphine oxide]	5 to 50 µM	> 50 µM	0.02 to 0.2 µM	> 50 µM	0.02 to 0.2 µM	0.02 to 0.2 µM	–	–
N#Cc1ccc2c(-c3nc(N[C@H]4CC[C@H](N)C4)ncc3C(F)(F)F)c[nH]c2n1 [Compound 65, 3-(2-(((1S,3S)-3-aminocyclopentyl)amino)-5-(trifluoromethyl)pyrimidin-4-yl)-1H-pyrrolo[2,3-b]pyridine-6-carbonitrile]	5 to 50 µM	5 to 50 µM	0.02 to 0.2 µM	5 to 50 µM	0.02 to 0.2 µM	< 0.02 µM	–	–
CP(C)(=O)c1cccc2c(-c3nc(NC4CC45CCNC5)ncc3C(F)(F)F)c[nH]c12 (single isomer, unassigned) [Compound 109]	5 to 50 µM	> 50 µM	–	> 50 µM	–	0.02 to 0.2 µM	0.02 to 0.2 µM	0.02 to 0.2 µM
CP(C)(=O)c1cccc2c(-c3nc(NCC4(O)CCOC4)ncc3C(F)(F)F)c[nH]c12 (single isomer, unassigned) [Compound 121]	5 to 50 µM	> 50 µM	0.2 to 5 µM	> 50 µM	0.02 to 0.2 µM	0.02 to 0.2 µM	–	–
CP(C)(=O)c1c(C#N)ccc2c(-c3nc(N[C@@H]4CCC45CNC5)ncc3C(F)(F)F)c[nH]c12 [Compound 77, (R)-3-(2-((2-azaspiro[3.3]heptan-5-yl)amino)-5-(trifluoromethyl)pyrimidin-4-yl)-7-(dimethylphosphoryl)-1H-indole-6-carbonitrile]	> 50 µM	> 50 µM	0.02 to 0.2 µM	> 50 µM	0.02 to 0.2 µM	0.02 to 0.2 µM	–	–
FC(F)(F)c1cnc(NC2COC23CNC3)nc1-c1c[nH]c2nc(N3CCOCC3)ccc12 (stereo not drawn) [Compound 58, N-(4-(6-morpholinyl-1H-pyrrolo[2,3-b]pyridin-3-yl)-5-(trifluoromethyl)pyrimidin-2-yl)-1-oxa-6-azaspiro[3.3]heptan-3-amine]	5 to 50 µM	> 50 µM	0.2 to 5 µM	> 50 µM	0.02 to 0.2 µM	0.02 to 0.2 µM	–	–
CN(C)CC1CCCC1Nc1ncc(C(F)(F)F)c(-c2c[nH]c3c(P(C)(C)=O)cccc23)n1 (single isomer, unassigned) [Compound 135]	0.2 to 5 µM	0.2 to 5 µM	< 0.02 µM	5 to 50 µM	< 0.02 µM	< 0.02 µM	–	–
FC(F)(F)c1cnc(NCC2CCNC2)nc1-c1c[nH]c2nc(N3CCOCC3)ccc12 (stereo not drawn) [Compound 52, 4-(6-morpholinyl-1H-pyrrolo[2,3-b]pyridin-3-yl)-N-(pyrrolidin-3-ylmethyl)-5-(trifluoromethyl)pyrimidin-2-amine]	5 to 50 µM	5 to 50 µM	0.2 to 5 µM	5 to 50 µM	0.2 to 5 µM	0.02 to 0.2 µM	–	–
CP(C)(=O)c1cccc2c(-c3nc(NCC4(O)CCOC4)ncc3C(F)(F)F)c[nH]c12 (single isomer, unassigned) [Compound 122]	5 to 50 µM	> 50 µM	–	> 50 µM	–	0.02 to 0.2 µM	0.2 to 5 µM	0.02 to 0.2 µM
CP(C)(=O)c1cccc2c(-c3nc(NC4CCC5(CCNC5)C4)ncc3C(F)(F)F)c[nH]c12 (single isomer, unassigned) [Compound 98]	0.2 to 5 µM	5 to 50 µM	< 0.02 µM	5 to 50 µM	< 0.02 µM	< 0.02 µM	–	–
CP(C)(=O)c1cccc2c(-c3nc(NCC4(O)CC4)ncc3C(F)(F)F)c[nH]c12 [Compound 164]	5 to 50 µM	> 50 µM	0.02 to 0.2 µM	> 50 µM	0.02 to 0.2 µM	< 0.02 µM	–	–
C[C@H](O)CNc1ncc(C(F)(F)F)c(-c2c[nH]c3c(P(C)(C)=O)cccc23)n1 [Compound 173, (S)-(3-(2-((2-hydroxypropyl)amino)-5-(trifluoromethyl)pyrimidin-4-yl)-1H-indole-7-yl)dimethylphosphine oxide]	5 to 50 µM	> 50 µM	0.02 to 0.2 µM	> 50 µM	0.02 to 0.2 µM	< 0.02 µM	–	–
Cc1noc(C)c1-c1ccc2c(-c3nc(NC4CCC5(CCNC5)C4)ncc3C(F)(F)F)c[nH]c2n1 (stereo not drawn) [Compound 35, N-(4-(6-(3,5-dimethylisoxazol-4-yl)-1H-pyrrolo[2,3-b]pyridin-3-yl)-5-(trifluoromethyl)pyrimidin-2-yl)-2-azaspiro[4.4]non-7-amine]	0.2 to 5 µM	0.2 to 5 µM	0.02 to 0.2 µM	0.2 to 5 µM	0.02 to 0.2 µM	< 0.02 µM	–	–
CP(C)(=O)c1cccc2c(-c3nc(NC4(CO)CCOCC4)ncc3C(F)(F)F)c[nH]c12 [Compound 166, (3-(2-((4-(hydroxymethyl)tetrahydro-2H-pyran-4-yl)amino)-5-(trifluoromethyl)pyrimidin-4-yl)-1H-indole-7-yl)dimethylphosphine oxide]	> 50 µM	> 50 µM	0.2 to 5 µM	> 50 µM	0.2 to 5 µM	0.02 to 0.2 µM	–	–
FC(F)(F)c1cnc(NC2COC3(CCNCC3)C2)nc1-c1c[nH]c2nc(N3CCOCC3)ccc12 (stereo not drawn) [Compound 51, N-(4-(6-morpholinyl-1H-pyrrolo[2,3-b]pyridin-3-yl)-5-(trifluoromethyl)pyrimidin-2-yl)-1-oxa-8-azaspiro[4.5]decan-3-amine]	5 to 50 µM	5 to 50 µM	0.2 to 5 µM	5 to 50 µM	0.2 to 5 µM	0.2 to 5 µM	–	–
